# Laboratory results reported in ChEMBL document CHEMBL6074647, “Design, synthesis and antitumor activity of novel 4-oxobutanamide derivatives” (Bioorg Med Chem Lett, 2024).
# What was measured:
# MDA-MB-231 = test: Antiproliferative activity against human MDA-MB-231 cells assessed as reduction in cell viability by MTT assay; format: functional, cell-based
# HeLa [1] = test: Antiproliferative activity against human HeLa cells assessed as reduction in cell viability by MTT assay; format: functional, cell-based
# A498 [2] = test: Antiproliferative activity against human A498 cells assessed as reduction in cell viability by MTT assay; format: functional, cell-based
# A498 [3] = test: Inhibition of colony formation in human A498 cells assessed as proliferative capacity at 1 uM; format: functional; parameters: scale not given: the % may be the effect or the level left
# A498 [4] = test: Inhibition of colony formation in human A498 cells assessed as proliferative capacity at 2 uM; format: functional; parameters: scale not given: the % may be the effect or the level left
# A498 [5] = test: Inhibition of colony formation in human A498 cells assessed as proliferative capacity at 4 uM; format: functional; parameters: scale not given: the % may be the effect or the level left
# A498 [6] = test: Inhibition of cell invasion in human A498 cells assessed as decrease in cell density invading the bottom surface of the membrane by Transwell assay; format: functional, cell-based; settings: dose 1-4 µM
# A498 [7] = test: Inhibition of cell invasion in human A498 cells assessed as decrease in cell density invading the bottom surface of the membrane at 2 uM by Transwell assay; format: functional, cell-based
# A498 [8] = test: Inhibition of cell adhesion in human A498 cells; format: functional, cell-based; settings: dose 1-4 µM
# A498 [9] = test: Inhibition of cell adhesion in human A498 cells at 4 uM; format: functional, cell-based
# A498 [10] = test: Anti-angiogenesis activity against human A498 cells xenografted in chicken embryo chorioallantoic membrane assessed as CAM blood vessel growth at 1 uM; format: functional
# A498 [11] = test: Anti-angiogenesis activity against human A498 cells xenografted in chicken embryo chorioallantoic membrane assessed as CAM blood vessel growth at 2 uM; format: functional
# A498 [12] = test: Anti-angiogenesis activity against human A498 cells xenografted in chicken embryo chorioallantoic membrane assessed as CAM blood vessel growth at 4 uM; format: functional
# A498 [13] = test: Antitumor activity against human A498 cells xenografted in chicken embryo chorioallantoic membrane assessed as decrease in tumor weight; format: functional, cell-based; settings: dose 1-4 µM
# A498 [14] = test: Antitumor activity against human A498 cells xenografted in chicken embryo chorioallantoic membrane assessed as decrease in tumor weight at 4 uM; format: functional, cell-based
# NCI-H460 = test: Antiproliferative activity against human NCI-H460 cells assessed as inhibition of cell growth; format: functional, cell-based
# HeLa [15] = test: Antiproliferative activity against human HeLa cells assessed as inhibition of cell growth; format: functional, cell-based
# PANC-1 = test: Antitumor activity against human PANC-1 cells; format: functional, cell-based
# A2780 = test: Antitumor activity against human A2780 cells; format: functional, cell-based
# SMMC-7721 = test: Antitumor activity against human […] cells; format: functional, cell-based
SMILES,IC50 (MDA-MB-231) [µM],IC50 (HeLa [1]) [µM],IC50 (A498 [2]) [µM],also measured
COc1ccc(CN(C(=O)CCC(=O)Nc2ccc(OC)cc2)c2cc(OC)c(OC)c(OC)c2)cc1,31.5,8.24,1.94,"Activity (A498 [3]): 66.94%; Activity (A498 [4]): 26.03%; Activity (A498 [5]): 11.16%; inhibition (A498 [6]): Dose-dependent-effect; inhibition (A498 [7]): Active; Better Activity Compared To 4 Um Positive Control, Paclitaxel And Colchicine; inhibition (A498 [8]): Dose-dependent-effect; inhibition (A498 [9]): Active; Better Activity Compared To Positive Control, Paclitaxel And Colchicine; Activity (A498 [10]): 82.4%; Activity (A498 [11]): 66.22%; Activity (A498 [12]): 42.04%; Activity (A498 [13]): Dose-dependent-effect; Activity (A498 [14]): Active; Better Activity Compared To Positive Control, Paclitaxel And Colchicine"
COc1ccc(CN(C(=O)CCC(=O)Nc2ccc(Br)cc2)c2cc(OC)c(OC)c(OC)c2)cc1,58.6,20.8,5.4,
COc1ccc(CN(C(=O)CCC(=O)Nc2ccccc2)c2cc(OC)c(OC)c(OC)c2)cc1,16.1,16,2.11,
COc1cc2c(c(OC)c1OC)-c1ccc(OC)c(=O)cc1[C@@H](NC(C)=O)CC2 [COLCHICINE],> 100,32.7,7.17,
COc1ccc(N(C)c2nc(C)nc3ccccc23)cc1NC(=O)CCC(=O)NO,,,,IC50 (NCI-H460): 1.05 µM; IC50 (HeLa [15]): 2.41 µM
COc1ccc(CN(C(=O)CCC(=O)Nc2ccc(O)cc2)c2cc(OC)c(OC)c(OC)c2)cc1,23.5,11.8,3.23,
COc1ccc(CN(C(=O)CCC(=O)Nc2cccc(F)c2)c2cc(OC)c(OC)c(OC)c2)cc1,56.2,39.8,11.9,
COc1ccc(CN(C(=O)CCC(=O)Nc2cccc(C)c2)c2cc(OC)c(OC)c(OC)c2)cc1,16.6,19.2,8.85,
COc1ccc(CN(C(=O)CCC(=O)Nc2ccc(Cl)cc2)c2cc(OC)c(OC)c(OC)c2)cc1,22.5,13.8,11.5,
COc1ccc(CN(C(=O)CCC(=O)Nc2cccc(Cl)c2)c2cc(OC)c(OC)c(OC)c2)cc1,48.3,20.4,10.7,
COc1ccc(CN(C(=O)CCC(=O)Nc2cc(OC)c(OC)c(OC)c2)c2cc(OC)c(OC)c(OC)c2)cc1,> 100,57.5,> 100,
COc1ccc(CN(C(=O)CCC(=O)Nc2cccc(OC)c2)c2cc(OC)c(OC)c(OC)c2)cc1,21.4,12,8.27,
COc1ccc(CCc2cc(OC)c(OC)c(OC)c2)cc1O,,,,IC50 (PANC-1): 0.45 µM; IC50 (A2780): 0.42 µM; IC50 (SMMC-7721): 0.29 µM

# Further lines, with some results ahead:
IC50 (MDA-MB-231) [µM],IC50 (HeLa [1]) [µM],SMILES,IC50 (A498 [2]) [µM],also measured
40.7,,COc1ccc(CN(C(=O)C(=O)Nc2ccc(Cl)cc2)c2cc(OC)c(OC)c(OC)c2)cc1,,
73,41.9,COc1ccc(CN(C(=O)CCC(=O)Nc2ccccc2Cl)c2cc(OC)c(OC)c(OC)c2)cc1,5.58,
31.4,21.3,CC(=O)O[C@H]1C(=O)[C@@]2(C)[C@H]([C@H](OC(=O)c3ccccc3)[C@]3(O)C[C@H](OC(=O)[C@H](O)[C@@H](NC(=O)c4ccccc4)c4ccccc4)C(C)=C1C3(C)C)[C@]1(OC(C)=O)CO[C@@H]1C[C@@H]2O [PACLITAXEL],,
> 100,4.65,COc1ccc(CN(C(=O)CCC(=O)Nc2ccc(C(F)(F)F)cc2)c2cc(OC)c(OC)c(OC)c2)cc1,> 100,
55.9,,COc1ccc(CN(C(=O)C(=O)Nc2ccc(C)cc2)c2cc(OC)c(OC)c(OC)c2)cc1,,
74.4,48.3,COc1ccc(CN(C(=O)CCC(=O)Nc2ccccc2OC)c2cc(OC)c(OC)c(OC)c2)cc1,5.81,
24,2.39,COc1ccc(CN(C(=O)CCC(=O)Nc2ccc(F)cc2)c2cc(OC)c(OC)c(OC)c2)cc1,4.06,
8.08,> 100,COc1ccc(CN(C(=O)CCC(=O)Nc2ccc(C)cc2)c2cc(OC)c(OC)c(OC)c2)cc1,5.34,
